Source: PMC3335862, “Novel Small-Molecule Inhibitors of Hepatitis C Virus Entry Block Viral Spread and Promote Viral Clearance in Cell Culture” (PLoS ONE, 2012)
Where two headings read alike, the source gives them in different places.

Key:
[1] = system: HCVpp pseudotyped with the GT1a envelope; assay: microbe, parasite or virus in culture; format: cell-based; settings: Hepatitis C virus, Hep3B cells, 72 h
HCVpp GT 1b = assay: microbe, parasite or virus in culture; format: cell-based; settings: Hepatitis C virus, GT1B
HCVpp genotype 4 = assay: microbe, parasite or virus in culture; format: cell-based; settings: Hepatitis C virus; n = 1 strain
[2] = system: HCVpp typed with envelopes representing genotypes 2a, 2b, 3, and 6; assay: microbe, parasite or virus in culture; format: cell-based; settings: Hepatitis C virus
VSVpp = assay: microbe, parasite or virus in culture; format: cell-based, VSV
GT 1a/2a HCV [3] = assay: HCV viral spread assay (cell-free and cell-cell transmission), flow cytometry; format: cell-based, hepatitis C virus; settings: 72 h; PRO0371155 1 µM, PA-25 10 µg/mL; DMSO control 18.3, Background 0.31
Description: Figure 3 PRO0371155 inhibits HCV infection by both cell-free and cell-cell modes of transmission. […] TEXT PRINTED IN THE PICTURE: PA-25: 7.54; 19.9; 66.8; 5.75 | DMSO: 4.4; 29.8; 47.6; 18.3 | PRO0371155: 8.1; 25.7; 65.7; 0.48 DOUBTS OF THE COPYIST ABOUT THIS PICTURE: All values are quadrant numbers of flow cytometry plots, given in the order upper left, upper right, lower left, lower right. The picture prints no measure or unit with them. / The print is very small, so 3, 5, 6, 8 and 9 cannot be told apart with certainty in any of the values below. / PA-25: 7.54, 19.9, 66.8 (partly hidden by data points; may be 65.8 or 68.8), 5.75 / DMSO: 4.4, 29.8 (or 29.6), 47.6 (partly hidden by data points; may be 47.8), 18.3 (or 18.8) / PRO0371155: 8.1, 25.7, 65.7 (partly hidden by data points), 0.48 (or 0.46) / The plot headed 'Background' (0.016, 5.44e-3, 99.7, 0.31) is left out because it is a staining control and not a substance.
8.8.7 software (TreeStar).
To determine whether the triazine series can block both routes of infection, we utilized a flow cytometry-based cell-to-cell transmission assay. Infected cells, stained with CellTracker green, were mixed with naïve cells in the presence or absence of entry inhibitors.

HCVpp GT1a Pass. Ctrl. = assay: microbe, parasite or virus in culture; format: cell-based; settings: Hepatitis C virus, envelope from DMSO passage control culture
HCVpp T388A = format: cell-based, hepatitis C virus
HCVpp V719G = format: cell-based, hepatitis C virus; settings: GT1a background
HCVpp GT1a-V719L = format: cell-based, hepatitis C virus; settings: GT1a background
HCVpp GT 1a-V719I = format: cell-based, hepatitis C virus
HCVpp GT 1a V719A = format: cell-based, hepatitis C virus
HCVpp GT 1b-V719L = format: cell-based, hepatitis C virus; settings: Genotype 1b background
HCVpp GT 1b-V719I = format: cell-based, hepatitis C virus; settings: Genotype 1b background
HCVpp GT 1b V719A = format: cell-based, hepatitis C virus; settings: Genotype 1b background
[4] = system: Hep3B, Huh-7, 293T, HeLa, Daudi, Ramos, Jurkat, primary hepatocyte; settings: CellTiter Glo assay; data not shown except Hep3B
in vitro = settings: human
GT 1a/2a HCV [5] = assay: HCV cell culture infection assay (Renilla luciferase), GT 1a/2a; settings: Hepatitis C virus, GT1A, read-out: HCV Cell Culture EC50 GT 1a/2a
GT 1b/2a HCV = assay: HCV cell culture infection assay (Renilla luciferase), GT 1b/2a; settings: Hepatitis C virus, GT1B, read-out: HCV Cell Culture EC50 GT 1b/2a
GT 1a/2a HCV [6] = assay: Quantification of HCV RNA by qRT-PCR in long term treated cultures
GT 1a/2a HCV [7] = system: GT 1a/2a HCV
[8] = culture initially 33% HCV+, 1 µM

CS(=O)(=O)N1CCC(Nc2nc(Nc3cccc(C(F)(F)F)c3)nc(OCC(F)(F)F)n2)CC1 [PRO0371155]
EC50 ([1]; median across panel of GT 1a envelopes from HCV+ patient sera (n = strains), read-out: HCVpp Median EC50 GT 1a): 0.009 µM | EC50 ([1]; prototypical/parent GT 1a envelope, read-out: GT1a (EC50), HCVpp): 0.002 µM | EC50 (HCVpp GT 1b; Hep3B, parent GT 1b envelope, read-out: EC50, HCVpp GT 1b): 0.317 µM | EC50 (HCVpp GT 1b; median across panel of GT 1b envelopes from HCV+ patient sera (n = strains), Hep3B cells, 72 h, read-out: HCVpp Median EC50 GT 1b): > 0.825 µM | EC50 (HCVpp genotype 4): 0.19 µM | EC50 [2]: > 1 µM | inhibition of entry of pseudoviral particles with envelope glycoproteins from irrelevant viruses including VSV (VSVpp): did not inhibit | EC50 (VSVpp; Vesicular stomatitis virus, read-out: VSVpp EC50): 39 µM | newly infected HCV+ cells (lower right quadrant) (GT 1a/2a HCV [3]): 0.48% | EC50 (HCVpp GT1a Pass. Ctrl.): 0.004 µM | influence of T388A on susceptibility in the HCVpp assay (HCVpp T388A): did not have any influence | EC50 (HCVpp T388A; GT1a background): 0.002 µM | EC50 (HCVpp V719G): > 1 µM | loss in susceptibility, V719G vs GT1a in the HCVpp assay (HCVpp V719G): > 500 fold | reduction in activity vs parent GT1a envelope, V719L (HCVpp GT1a-V719L): 500 fold | reduction in potency vs parent GT1a envelope, V719I (HCVpp GT 1a-V719I; GT1a background): 34 fold | EC50 (HCVpp GT 1a-V719I; Genotype 1a background): 0.067 µM | fold change of EC50 vs parent GT 1a, V719I (HCVpp GT 1a-V719I; Genotype 1a background): 34 × | reduction in potency vs parent GT1a envelope, V719A (HCVpp GT 1a V719A; GT1a background): 46 fold | EC50 (HCVpp GT 1a V719A; Genotype 1a background): 0.092 µM | fold change of EC50 vs parent GT 1a, V719A (HCVpp GT 1a V719A; Genotype 1a background): 46 × | EC50 (HCVpp GT 1b-V719L): > 1 µM | fold change of EC50 vs parent GT 1b, V719L (HCVpp GT 1b-V719L): 3 × | EC50 (HCVpp GT 1b-V719I): > 1 µM | fold change of EC50 vs parent GT 1b, V719I (HCVpp GT 1b-V719I): 3 × | EC50 (HCVpp GT 1b V719A): 0.273 µM | fold change of EC50 vs parent GT 1b, V719A (HCVpp GT 1b V719A): 0.9 × | cytotoxicity against a panel of cell lines and primary cells [4]: minimal cytotoxicity | CC50 (in vitro): 31 µM | EC50 (GT 1a/2a HCV [5]): 0.009 µM | EC50 (GT 1b/2a HCV): > 1 µM | time HCV RNA maintained at background levels after removal of compound (GT 1a/2a HCV [6]): > 50 days | HCV RNA levels (GT 1a/2a HCV [6]; after 100 days in the presence of compound, 1 µM, limit of quantification): < 0.5 copies/cell | change in percentage of HCV+ cells (NS3 staining) (GT 1a/2a HCV [7]; 20% HCV+ at baseline, PRO0371155 1 µM, IFN-alpha 10 IU/mL): more gradual decline | day of viral breakthrough in the presence of compound (GT 1a/2a HCV [7]; [8]): 21 days | time to loss of viral suppression and emergence of drug resistance (GT 1a/2a HCV [7]; [8]): ~3 weeks | fate of infected cells on long term treatment (GT 1a/2a HCV [7]; culture initially 90% HCV+, 1 µM): eradicated | viral rebound during washout period (GT 1a/2a HCV [7]; drug released at day 116, passaged additional 30 days, 90% HCV+ culture): not observed
